Source: the Deep4Chem optical property database
Values joined by “and” are separate entries in the source; they are usually repeats but may differ in a detail not shown here. Identical values can stand only once.

Assay: solvent given as SMILES
[1] = in c1cc(-c2cccc(-n3c4ccccc4c4ccccc43)c2)cc(-n2c3ccccc3c3ccccc32)c1

## CC1=[N+]2C(=C(c3ccccc3)c3ccc(C)n3[B-]2(F)F)C=C1
In C1CCCCC1
  fluorescence lifetime: 1.94 ns
In CC#N
  fluorescence lifetime: 1.33 ns
In CCOC(C)=O
  fluorescence lifetime: 1.71 ns
In CO
  fluorescence lifetime: 1.46 ns
In Cc1ccccc1
  fluorescence lifetime: 2.65 ns
In ClC(Cl)Cl
  fluorescence lifetime: 2.65 ns

## O=Cc1cc2c(cc3ccc4cccc5ccc2c3c45)[nH]1
In CCOC(C)=O
  fluorescence lifetime: 2.55 ns

## COC(=O)/C(C#N)=c1/cc/c(=c2/cc/c(=C(\C#N)C(=O)OC)s2)s1
In Cc1ccccc1
  fluorescence lifetime: 0.016 ns

## F[B-]1(F)n2c(cc3c4ccccc4c4ccccc4c32)-c2ccc3ccccc3[n+]21
In ClCCl
  fluorescence lifetime: 4.89 ns

## CNC1=C2C=CC=[N+]2[B-](F)(F)n2cccc21
In C1CCCCC1
  fluorescence lifetime: 4.67 ns
In CC(C)=O
  fluorescence lifetime: 0.726 ns
In CCO
  fluorescence lifetime: 0.774 ns
In CCOC(C)=O
  fluorescence lifetime: 2.04 ns
In CO
  fluorescence lifetime: 0.523 ns
In OCC(F)(F)F
  fluorescence lifetime: 1.4 ns

## CN1CCN(CCCN2c3ccccc3Sc3ccc(C(F)(F)F)cc32)CC1
In CC#N
  fluorescence lifetime: 2.68 ns
In CO
  fluorescence lifetime: 2.52 ns
In O
  fluorescence lifetime: 3.01 ns

## c1ccc(-c2nc(-c3ccccc3)nc(-c3ccc(-n4c5ccccc5c5cc6c(cc54)c4ccccc4n6-c4ccccc4)cc3)n2)cc1
In O=P(c1ccccc1)(c1ccccc1)c1ccc2oc3ccc(P(=O)(c4ccccc4)c4ccccc4)cc3c2c1
  fluorescence lifetime: 13.4 ns

## CCCCCCCCCCCCN1C(=O)c2c(c3ccc4cc(-c5ccc(OC)cc5)c(OC)cc4c3c3c2ccc2cc(-c4ccc(OC)cc4)c(OC)cc23)C1=O
In ClCCl
  fluorescence lifetime: 6.44 ns

## Cc1cn(CCCn2cc(C)c(=O)[nH]c2=O)c(=O)nc1-n1cncn1
In O
  fluorescence lifetime: 0.74 ns

## CCN1C(=CC2=C([O-])C(=Cc3sc4ccccc4[n+]3CC)C2=O)Sc2ccccc21
In CO
  fluorescence lifetime: 0.56 ns
In ClC(Cl)Cl
  fluorescence lifetime: 4.05 ns

## CC(=O)[B-]1(C(C)=O)OC(c2ccc3ccccc3c2)=CC(c2ccc3ccccc3c2)=[O+]1
In CC#N
  fluorescence lifetime: 5.5 ns
In ClC(Cl)(Cl)Cl
  fluorescence lifetime: 1.1 ns

## CCCCCCCCCCOc1ccc(C#Cc2ccc(C#Cc3ccc(OCCCCCCCCCC)c(OCCCCCCCCCC)c3)c3nc4c5ccccc5c5ccccc5c4nc23)cc1OCCCCCCCCCC
In C1CCOC1
  fluorescence lifetime: 8.24 ns
In Cc1ccccc1
  fluorescence lifetime: 7.1 ns
In ClCCl
  fluorescence lifetime: 8.66 ns

## c1cc2c3c(c1)OCCCCCCOc1cccc(c1-c1c4ccccc4c-3c3ccccc13)OCCCCCCO2
In C1CCCCC1
  fluorescence lifetime: 8.64 ns

## COc1ccc(OC)cc1
In C1CCCCC1
  fluorescence lifetime: 3.8 ns

## COc1cc2c(cc1-c1ccc(N(c3ccccc3)c3ccccc3)cc1)Cc1c3c(c4c(c1-2)-c1cc(OC)c(-c2ccc(N(c5ccccc5)c5ccccc5)cc2)cc1C4)C(=O)N(CCC(C)C)C3=O
In C1CCOC1
  fluorescence lifetime: 4.14 ns

## Cc1cc(C)c(C2=[N+]3C(=Cc4c(C)cc(C)n4[B-]3(F)F)c3ccccc32)[nH]1
In C1CCOC1
  fluorescence lifetime: 3.75 ns
In CC#N
  fluorescence lifetime: 4.34 ns
In CCCCCC
  fluorescence lifetime: 7.17 ns
In CO
  fluorescence lifetime: 4.98 ns
In Cc1ccccc1
  fluorescence lifetime: 6.14 ns
In ClCCl
  fluorescence lifetime: 6.4 ns

## CCN(CC)c1ccc2c(c1)oc(=O)c1cnc3c(cnn3-c3ccccc3)c12
In ClCCl
  fluorescence lifetime: 2.48 ns

## COC(=O)C([NH3+])Cc1ccc2oc(-c3ccncc3)nc2c1 (stereo not given)
In CC1CCCCC1
  fluorescence lifetime: 3.12 ns
In CC#N
  fluorescence lifetime: 6.09 ns
In CO
  fluorescence lifetime: 0.742 ns
In O
  fluorescence lifetime: 0.999 ns

## CC1=C(c2cccs2)C(C)=[N+]2C1=C(c1ccc(O)cc1)c1c(C)c(-c3cccs3)c(C)n1[B-]2(F)F
In Cc1ccccc1
  fluorescence lifetime: 3.8 ns

## CC[B-]1(CC)c2cccc3c4c5c(cccc5c(c23)-c2cccc(C)[n+]21)[B-](CC)(CC)[n+]1c(C)cccc1-4
In ClCCl
  fluorescence lifetime: 11.1 ns

## COC(=O)C(NC(=O)OC(C)(C)C)c1ccc2oc(-c3ccc(N(C)C)cc3OC)nc2c1 (stereo not given)
In CC1CCCCC1
  fluorescence lifetime: 1.25 ns
In CC#N
  fluorescence lifetime: 1.24 ns
In CO
  fluorescence lifetime: 1.32 ns

## CC(C)(C)c1ccc2c(c1)c1cc(C(C)(C)C)ccc1n2-c1ccc(C#Cc2ccc3c4ccc(C#Cc5ccc(-n6c7ccc(C(C)(C)C)cc7c7cc(C(C)(C)C)ccc76)cc5)cc4n(-c4ccc(C(F)(F)F)cc4)c3c2)cc1
In ClCCl
  fluorescence lifetime: 0.1 ns

## CC1(C)c2ccccc2N(c2ccc3c(c2)c2cc(N4c5ccccc5C(C)(C)c5ccccc54)ccc2c2nc(C#N)c(C#N)nc32)c2ccccc21
In O=P(c1ccccc1)(c1ccccc1)c1cccc(-c2cc(-n3c4ccccc4c4ccccc43)cc(-n3c4ccccc4c4ccccc43)c2)n1
  fluorescence lifetime: 53.7 ns

## Cc1cc(C)c(B(c2ccccc2-n2c3ccccc3c3ccccc32)c2c(C)cc(C)cc2C)c(C)c1
In Cc1ccccc1
  fluorescence lifetime: 38 ns

## CC1(C)c2ccccc2N(c2ccc3nc4c5ccc(N6c7ccccc7C(C)(C)c7ccccc76)cc5c5cc(N6c7ccccc7C(C)(C)c7ccccc76)ccc5c4nc3c2)c2ccccc21
[1]
  fluorescence lifetime: 32 ns

## N#C/C(=C\c1ccncc1)c1nc(-c2ccccc2)cs1
In CC#N
  fluorescence lifetime: 4.85 ns

## CN(C)c1ccc(/C=C/c2nc3c(ccc4ccccc43)s2)cc1
In C1CCCCC1
  fluorescence lifetime: 0.1 ns and 0.13 ns
In CC#N
  fluorescence lifetime: 0.1 ns and 0.13 ns

## CC(=O)c1ccc(-c2nc3ccc(N(C)C)c(Br)c3s2)cc1
In C1CCCCC1
  fluorescence lifetime: 0.1 ns

## Cc1cc(C)c2c(c1)c1cc(C)cc(C)c1n2-c1ccc2c(c1)B(c1c(C(C)C)cc(C(C)C)cc1C(C)C)c1cc(-n3c4c(C)cc(C)cc4c4cc(C)cc(C)c43)ccc1N2c1ccccc1
[1]
  fluorescence lifetime: 9 ns

## Cc1cc(=O)oc2c3c4c(cc12)CCCN4CCC3
In C1CCCCC1
  fluorescence lifetime: 2.6 ns
In CC#N
  fluorescence lifetime: 3.3 ns
In CCC#N
  fluorescence lifetime: 4.26 ns
In CCCCl
  fluorescence lifetime: 3.75 ns
In CCO
  fluorescence lifetime: 4.5 ns and 4.54 ns
In O
  fluorescence lifetime: 5.9 ns
In OC(C(F)(F)F)C(F)(F)F
  fluorescence lifetime: 6.88 ns
In OCC(F)(F)F
  fluorescence lifetime: 6.36 ns

## Cc1cc(-c2cccc3ccccc23)cc(C)[o+]1
In ClCCl
  fluorescence lifetime: 13.4 ns
